Tests used:
[1] = biological target: Cyclin-dependent kinase-like 1 (Homo sapiens) (UniProt Q00532)
[2] = biological target: Mitogen-activated protein kinase kinase kinase 5 (Homo sapiens) (UniProt Q99683)
[3] = biological target: 5-hydroxytryptamine receptor 1D (Homo sapiens) (UniProt P28221); conditions: Compound concentration 10.0 uM
[4] = biological target: Bone morphogenetic protein receptor type-1A (Homo sapiens) (UniProt P36894)
[5] = biological target: Serine/threonine-protein kinase MRCK alpha (Homo sapiens) (UniProt Q5VT25)
[6] = biological target: Serine/threonine-protein kinase DCLK1 (Homo sapiens) (UniProt O15075)
Sequence of Serine/threonine-protein kinase DCLK1 (Homo sapiens) (O15075 whole entry): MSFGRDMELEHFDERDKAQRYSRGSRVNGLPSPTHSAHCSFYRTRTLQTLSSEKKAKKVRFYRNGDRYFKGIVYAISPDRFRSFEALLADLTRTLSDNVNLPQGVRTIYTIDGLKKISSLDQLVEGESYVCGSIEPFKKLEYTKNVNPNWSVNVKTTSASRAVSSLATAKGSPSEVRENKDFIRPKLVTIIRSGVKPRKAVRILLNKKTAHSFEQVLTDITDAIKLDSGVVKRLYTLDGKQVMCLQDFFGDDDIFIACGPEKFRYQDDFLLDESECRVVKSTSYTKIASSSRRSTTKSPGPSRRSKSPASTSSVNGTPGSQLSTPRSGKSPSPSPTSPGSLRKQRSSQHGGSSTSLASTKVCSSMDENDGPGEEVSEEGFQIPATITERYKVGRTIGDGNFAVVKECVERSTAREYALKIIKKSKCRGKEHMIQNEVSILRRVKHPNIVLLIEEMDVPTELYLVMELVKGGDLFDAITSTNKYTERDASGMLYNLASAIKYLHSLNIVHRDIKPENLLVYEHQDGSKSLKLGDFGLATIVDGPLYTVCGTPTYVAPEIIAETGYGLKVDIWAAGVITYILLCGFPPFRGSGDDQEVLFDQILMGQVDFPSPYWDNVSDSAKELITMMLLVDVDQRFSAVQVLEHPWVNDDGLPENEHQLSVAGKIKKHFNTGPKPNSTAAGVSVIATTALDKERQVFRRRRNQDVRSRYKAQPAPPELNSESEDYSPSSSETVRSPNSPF

[7] = biological target: Ribosomal protein S6 kinase alpha-4 (Homo sapiens) (UniProt O75676)
[8] = biological target: Dual specificity mitogen-activated protein kinase kinase 1 (Homo sapiens) (UniProt Q02750)
[9] = biological target: Uncharacterized serine/threonine-protein kinase SBK3 (Homo sapiens) (UniProt P0C264)
[10] = biological target: Muscarinic acetylcholine receptor M3 (Homo sapiens) (UniProt P20309); conditions: Compound concentration 10.0 uM
[11] = biological target: Tyrosine-protein kinase Lck (Homo sapiens) (UniProt P06239)
[12] = biological target: Peripheral plasma membrane protein CASK (Homo sapiens) (UniProt O14936)
[13] = biological target: Serine/threonine-protein kinase 35 (Homo sapiens) (UniProt Q8TDR2)
[14] = tested on: Phosphatidylinositol 4,5-bisphosphate 3-kinase catalytic subunit alpha isoform (Homo sapiens), P42336 [E545A]
[15] = biological target: Tyrosine-protein kinase TXK (Homo sapiens) (UniProt P42681)
Sequence of Tyrosine-protein kinase TXK (Homo sapiens) (P42681 whole entry): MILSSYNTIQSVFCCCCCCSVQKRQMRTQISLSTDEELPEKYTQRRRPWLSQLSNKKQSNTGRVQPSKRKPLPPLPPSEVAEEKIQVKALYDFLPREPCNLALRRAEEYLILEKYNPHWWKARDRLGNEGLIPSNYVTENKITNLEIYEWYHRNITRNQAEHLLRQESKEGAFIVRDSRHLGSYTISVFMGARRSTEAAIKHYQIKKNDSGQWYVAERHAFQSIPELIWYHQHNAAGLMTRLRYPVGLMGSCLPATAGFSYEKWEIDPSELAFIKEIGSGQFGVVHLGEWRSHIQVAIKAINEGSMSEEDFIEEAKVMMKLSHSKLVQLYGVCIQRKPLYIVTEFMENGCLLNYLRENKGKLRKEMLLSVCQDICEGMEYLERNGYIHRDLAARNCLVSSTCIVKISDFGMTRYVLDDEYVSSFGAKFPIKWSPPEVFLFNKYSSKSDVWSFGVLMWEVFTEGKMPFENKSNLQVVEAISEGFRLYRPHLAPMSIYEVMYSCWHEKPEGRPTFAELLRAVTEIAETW

[16] = biological target: Cytoplasmic tyrosine-protein kinase BMX (Homo sapiens) (UniProt P51813)
[17] = biological target: TRAF2 and NCK-interacting protein kinase (Homo sapiens) (UniProt Q9UKE5)
[18] = biological target: Serine/threonine-protein kinase Nek3 (Homo sapiens) (UniProt P51956)
[19] = biological target: Serine/threonine-protein kinase PAK 5 (Homo sapiens) (UniProt Q9P286)
[20] = biological target: Testis-specific serine/threonine-protein kinase 1 (Homo sapiens) (UniProt Q9BXA7)
[21] = biological target: Dual specificity protein kinase CLK4 (Homo sapiens, UniProt Q9HAZ1)
[22] = tested on: Epidermal growth factor receptor (Homo sapiens), P00533 [UNDEFINED MUTATION]
[23] = tested on: Tyrosine-protein kinase ABL1 (Homo sapiens), P00519 [T315I]
[24] = biological target: NT-3 growth factor receptor (Homo sapiens) (UniProt Q16288)
[25] = biological target: Rhodopsin kinase GRK7 (Homo sapiens) (UniProt Q8WTQ7)
Sequence of Rhodopsin kinase GRK7 (Homo sapiens) (Q8WTQ7 whole entry): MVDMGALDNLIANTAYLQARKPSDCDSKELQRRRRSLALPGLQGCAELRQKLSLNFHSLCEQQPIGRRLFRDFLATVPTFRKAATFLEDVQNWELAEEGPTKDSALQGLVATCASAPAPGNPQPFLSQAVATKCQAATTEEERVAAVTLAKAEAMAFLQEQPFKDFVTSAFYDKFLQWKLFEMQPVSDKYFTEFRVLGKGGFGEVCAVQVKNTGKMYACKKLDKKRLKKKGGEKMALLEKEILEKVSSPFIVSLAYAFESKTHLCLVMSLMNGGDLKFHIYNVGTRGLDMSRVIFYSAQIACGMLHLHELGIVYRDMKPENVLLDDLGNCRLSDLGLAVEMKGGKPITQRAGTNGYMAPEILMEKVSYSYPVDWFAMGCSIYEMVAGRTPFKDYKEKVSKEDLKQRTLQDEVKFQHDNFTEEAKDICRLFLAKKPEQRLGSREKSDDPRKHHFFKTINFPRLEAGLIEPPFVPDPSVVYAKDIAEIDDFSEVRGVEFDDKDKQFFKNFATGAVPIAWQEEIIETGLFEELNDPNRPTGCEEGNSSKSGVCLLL

[26] = tested on: Leucine-rich repeat serine/threonine-protein kinase 2 (Homo sapiens), Q5S007 [G2019S]
[27] = biological target: Atypical kinase COQ8B, mitochondrial (Homo sapiens) (UniProt Q96D53)
Sequence of Atypical kinase COQ8B, mitochondrial (Homo sapiens) (Q96D53 whole entry): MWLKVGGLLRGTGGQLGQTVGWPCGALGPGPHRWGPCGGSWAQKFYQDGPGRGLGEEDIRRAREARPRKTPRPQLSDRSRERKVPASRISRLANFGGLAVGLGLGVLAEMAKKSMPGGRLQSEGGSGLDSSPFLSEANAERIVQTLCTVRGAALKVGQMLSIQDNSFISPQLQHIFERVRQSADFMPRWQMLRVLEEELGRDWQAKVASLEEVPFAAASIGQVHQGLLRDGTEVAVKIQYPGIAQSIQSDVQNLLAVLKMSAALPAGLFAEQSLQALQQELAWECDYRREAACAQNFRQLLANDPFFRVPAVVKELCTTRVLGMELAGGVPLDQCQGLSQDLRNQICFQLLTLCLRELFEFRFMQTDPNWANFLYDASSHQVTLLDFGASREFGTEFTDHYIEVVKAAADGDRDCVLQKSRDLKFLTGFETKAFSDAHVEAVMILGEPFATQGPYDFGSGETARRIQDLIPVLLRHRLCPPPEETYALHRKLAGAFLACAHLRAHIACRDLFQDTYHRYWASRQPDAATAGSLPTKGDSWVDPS

[28] = biological target: Serine/threonine-protein kinase PknB (Mycobacterium tuberculosis) (UniProt P9WI81)
[29] = biological target: Phosphatidylinositol 4,5-bisphosphate 3-kinase catalytic subunit delta isoform (Homo sapiens) (UniProt O00329)
[30] = biological target: Alpha-1A adrenergic receptor (Homo sapiens) (UniProt P35348); conditions: Compound concentration 10.0 uM
[31] = tested on: Phosphatidylinositol 4,5-bisphosphate 3-kinase catalytic subunit alpha isoform (Homo sapiens), P42336 [Q546K]
[32] = biological target: Serine/threonine-protein kinase TNNI3K (Homo sapiens) (UniProt Q59H18)
Sequence of Serine/threonine-protein kinase TNNI3K (Homo sapiens) (Q59H18 whole entry): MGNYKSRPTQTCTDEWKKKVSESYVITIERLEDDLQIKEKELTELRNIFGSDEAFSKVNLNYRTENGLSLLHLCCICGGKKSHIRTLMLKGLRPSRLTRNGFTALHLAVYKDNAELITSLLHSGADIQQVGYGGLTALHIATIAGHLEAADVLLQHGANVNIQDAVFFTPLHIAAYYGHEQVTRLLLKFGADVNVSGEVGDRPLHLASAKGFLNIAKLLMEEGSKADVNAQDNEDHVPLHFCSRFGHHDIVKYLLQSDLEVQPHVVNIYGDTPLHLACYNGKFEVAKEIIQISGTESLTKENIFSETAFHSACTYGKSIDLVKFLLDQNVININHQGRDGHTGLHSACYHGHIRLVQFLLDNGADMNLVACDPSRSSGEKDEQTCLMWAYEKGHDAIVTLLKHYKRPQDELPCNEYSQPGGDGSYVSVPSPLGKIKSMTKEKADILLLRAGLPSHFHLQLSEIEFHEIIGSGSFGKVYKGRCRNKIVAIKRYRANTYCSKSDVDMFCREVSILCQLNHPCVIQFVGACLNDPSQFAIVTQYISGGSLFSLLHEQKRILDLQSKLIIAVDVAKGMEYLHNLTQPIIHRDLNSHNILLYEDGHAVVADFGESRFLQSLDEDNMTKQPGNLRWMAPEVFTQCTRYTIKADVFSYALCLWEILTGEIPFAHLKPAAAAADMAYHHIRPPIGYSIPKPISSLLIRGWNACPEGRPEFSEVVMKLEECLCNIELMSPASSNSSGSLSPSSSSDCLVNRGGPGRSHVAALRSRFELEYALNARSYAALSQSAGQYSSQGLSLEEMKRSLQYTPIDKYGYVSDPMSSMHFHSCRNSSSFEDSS

[33] = biological target: Tyrosine-protein kinase JAK3 (Homo sapiens) (UniProt P52333)
[34] = tested on: Tyrosine-protein kinase ABL1 (Homo sapiens), P00519 [Y253F]
[35] = biological target: Calcium/calmodulin-dependent protein kinase type II subunit alpha (Homo sapiens) (UniProt Q9UQM7)
[36] = biological target: Tyrosine-protein kinase Fgr (Homo sapiens) (UniProt P09769)
[37] = biological target: Serine/threonine-protein kinase pim-2 (Homo sapiens) (UniProt Q9P1W9)
[38] = tested on: ALK tyrosine kinase receptor (Homo sapiens), Q9UM73 [C1156Y]
[39] = biological target: Beta-3 adrenergic receptor (Homo sapiens) (UniProt P13945); conditions: Compound concentration 10.0 uM
[40] = biological target: Dual specificity mitogen-activated protein kinase kinase 6 (Homo sapiens) (UniProt P52564)
Sequence of Dual specificity mitogen-activated protein kinase kinase 6 (Homo sapiens) (P52564 whole entry): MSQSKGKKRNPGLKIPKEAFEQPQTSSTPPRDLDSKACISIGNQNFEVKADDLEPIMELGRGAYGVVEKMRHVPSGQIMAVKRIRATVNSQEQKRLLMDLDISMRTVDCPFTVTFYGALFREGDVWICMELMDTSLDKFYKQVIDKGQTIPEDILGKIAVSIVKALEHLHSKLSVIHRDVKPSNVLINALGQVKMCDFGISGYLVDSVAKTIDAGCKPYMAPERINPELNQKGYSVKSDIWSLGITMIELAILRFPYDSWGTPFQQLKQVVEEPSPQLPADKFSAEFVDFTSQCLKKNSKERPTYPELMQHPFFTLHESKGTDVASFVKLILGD

[41] = biological target: Phosphatidylinositol 5-phosphate 4-kinase type-2 gamma (Homo sapiens) (UniProt Q8TBX8)
[42] = biological target: Cyclin-dependent kinase 13 (Homo sapiens) (UniProt Q14004)
[43] = biological target: Phosphatidylinositol 4-phosphate 3-kinase C2 domain-containing subunit beta (Homo sapiens) (UniProt O00750)
[44] = biological target: Ephrin type-A receptor 3 (Homo sapiens) (UniProt P29320)
Sequence of Ephrin type-A receptor 3 (Homo sapiens) (P29320 whole entry): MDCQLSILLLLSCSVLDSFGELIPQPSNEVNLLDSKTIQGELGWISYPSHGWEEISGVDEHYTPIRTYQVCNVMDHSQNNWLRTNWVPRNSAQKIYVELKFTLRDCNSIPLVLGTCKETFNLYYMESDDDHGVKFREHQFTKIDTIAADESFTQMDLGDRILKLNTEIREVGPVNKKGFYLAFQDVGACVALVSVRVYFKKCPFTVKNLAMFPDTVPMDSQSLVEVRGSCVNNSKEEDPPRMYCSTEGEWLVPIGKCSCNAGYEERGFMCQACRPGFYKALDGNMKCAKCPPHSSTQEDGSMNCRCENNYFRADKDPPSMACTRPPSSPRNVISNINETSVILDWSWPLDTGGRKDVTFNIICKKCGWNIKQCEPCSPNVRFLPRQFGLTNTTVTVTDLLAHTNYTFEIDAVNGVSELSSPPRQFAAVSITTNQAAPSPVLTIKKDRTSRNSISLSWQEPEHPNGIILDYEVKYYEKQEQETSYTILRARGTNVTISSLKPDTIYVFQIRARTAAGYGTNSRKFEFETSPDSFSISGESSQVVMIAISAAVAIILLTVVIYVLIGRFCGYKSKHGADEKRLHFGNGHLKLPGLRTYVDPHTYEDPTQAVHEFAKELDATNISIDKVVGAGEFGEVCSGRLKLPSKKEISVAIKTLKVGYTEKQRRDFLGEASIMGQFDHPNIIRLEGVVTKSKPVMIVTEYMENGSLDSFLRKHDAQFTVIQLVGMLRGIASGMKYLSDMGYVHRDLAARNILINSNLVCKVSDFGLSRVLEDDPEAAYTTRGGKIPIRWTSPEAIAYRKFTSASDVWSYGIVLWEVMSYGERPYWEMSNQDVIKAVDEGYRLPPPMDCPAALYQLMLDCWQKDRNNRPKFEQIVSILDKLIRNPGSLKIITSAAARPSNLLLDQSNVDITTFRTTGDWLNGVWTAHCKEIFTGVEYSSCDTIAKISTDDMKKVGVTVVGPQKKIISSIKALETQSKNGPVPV

[45] = Compound concentration 1000.0 nM
[46] = Compound concentration 100.0 nM

Sequence of 5-hydroxytryptamine receptor 1D (Homo sapiens) (P28221 whole entry): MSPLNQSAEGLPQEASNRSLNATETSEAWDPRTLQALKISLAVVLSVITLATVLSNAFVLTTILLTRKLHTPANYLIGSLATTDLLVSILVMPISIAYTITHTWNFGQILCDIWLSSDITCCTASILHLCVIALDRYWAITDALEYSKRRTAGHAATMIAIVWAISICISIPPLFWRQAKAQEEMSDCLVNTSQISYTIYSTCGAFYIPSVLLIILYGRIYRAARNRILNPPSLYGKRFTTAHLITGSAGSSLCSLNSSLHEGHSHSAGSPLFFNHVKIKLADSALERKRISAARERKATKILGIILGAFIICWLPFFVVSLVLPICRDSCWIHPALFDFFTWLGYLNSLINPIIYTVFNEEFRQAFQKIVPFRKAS

Question: For C[C@H](NC(=O)Nc1cc2[nH]ncc2c(CO)n1)c1ccccn1 [ERKi-NC], which residual activity [1, 45] is on record?
Answer: 78.8%

Question: And the residual activity [2, 45]?
Answer: 100%

Question: And the inhibition [3]?
Answer: 39.9%

Question: What about the residual activity [4, 45] of the same compound?
Answer: 74.6%

Question: What about the residual activity [5, 45] of the same compound?
Answer: 93.5%

Question: And the residual activity [6, 45]?
Answer: 71.1%

Question: And the residual activity [7, 45]?
Answer: 100%

Question: What about the residual activity [8, 45] of the same compound?
Answer: 97.6%

Question: What about the residual activity [9, 45] of the same compound?
Answer: 100%

Question: What about the inhibition [10] of the same compound?
Answer: -1.84%

Question: What about the residual activity [11, 45] of the same compound?
Answer: 81.5%

Question: What about the residual activity [12, 45] of the same compound?
Answer: 60.8%

Question: What about the residual activity [13, 45] of the same compound?
Answer: 100%

Question: And the residual activity [14, 45]?
Answer: 71.9%

Question: What about the residual activity [15, 45] of the same compound?
Answer: 51%

Question: And the residual activity [16, 45]?
Answer: 91.7%

Question: What about the residual activity [17, 45] of the same compound?
Answer: 100%

Question: And the residual activity [18, 45]?
Answer: 46.8%

Question: What about the residual activity [19, 45] of the same compound?
Answer: 100%

Question: What about the residual activity [20, 45] of the same compound?
Answer: 99%

Question: And the residual activity [21, 45]?
Answer: 78.8%

Question: What about the residual activity [22, 45] of the same compound?
Answer: 34.7%

Question: And the residual activity [23, 45]?
Answer: 94.4%

Question: What about the residual activity [24, 45] of the same compound?
Answer: 85.4%

Question: And the residual activity [25, 45]?
Answer: 100%

Question: And the residual activity [26, 45]?
Answer: 88.8%

Question: What about the residual activity [27, 45] of the same compound?
Answer: 99.8%

Question: And the residual activity [28, 45]?
Answer: 100%

Question: And the residual activity [29, 45]?
Answer: 100%

Question: And the inhibition [30]?
Answer: -8.5%

Question: And the residual activity [31, 45]?
Answer: 100%

Question: And the residual activity [32, 45]?
Answer: 100%

Question: What about the residual activity [33, 45] of the same compound?
Answer: 100%

Question: And the residual activity [34, 45]?
Answer: 100%

Question: What about the residual activity [35, 45] of the same compound?
Answer: 100%

Question: And the residual activity [36, 45]?
Answer: 100%

Question: What about the residual activity [37, 45] of the same compound?
Answer: 100%

Question: And the residual activity [38, 45]?
Answer: 100%

Question: And the inhibition [39]?
Answer: 13.6%

Question: And the residual activity [40, 45]?
Answer: 100%

Question: And the residual activity [41, 45]?
Answer: 100%

Question: And the residual activity [42, 45]?
Answer: 79%

Question: What about the residual activity [43, 45] of the same compound?
Answer: 100%

Question: What about the residual activity [44, 45] of the same compound?
Answer: 100%

Question: For C[C@@H](NC(=O)Nc1cc2[nH]ncc2c(CO)n1)c1ccccc1 [ERKi], which residual activity [1, 46] is on record?
Answer: 81.1%

Question: What about the residual activity [2, 46] of the same compound?
Answer: 100%

Question: What about the inhibition [3] of the same compound?
Answer: 1.59%

Question: And the residual activity [4, 46]?
Answer: 100%

Question: What about the residual activity [5, 46] of the same compound?
Answer: 86.5%

Question: And the residual activity [6, 46]?
Answer: 90.3%

Question: And the residual activity [7, 46]?
Answer: 72.5%

Question: And the residual activity [8, 46]?
Answer: 79.8%

Question: What about the residual activity [9, 46] of the same compound?
Answer: 100%

Question: And the inhibition [10]?
Answer: -5.17%

Question: What about the residual activity [11, 46] of the same compound?
Answer: 94.8%

Question: What about the residual activity [12, 46] of the same compound?
Answer: 89.7%

Question: What about the residual activity [13, 46] of the same compound?
Answer: 91.1%

Question: And the residual activity [14, 46]?
Answer: 78.4%

Question: What about the residual activity [15, 46] of the same compound?
Answer: 100%

Question: What about the residual activity [16, 46] of the same compound?
Answer: 94.3%

Question: And the residual activity [17, 46]?
Answer: 95.8%

Question: What about the residual activity [18, 46] of the same compound?
Answer: 79.6%

Question: And the residual activity [19, 46]?
Answer: 88.7%

Question: What about the residual activity [20, 46] of the same compound?
Answer: 94.6%

Question: And the residual activity [21, 46]?
Answer: 66.6%

Question: What about the residual activity [22, 46] of the same compound?
Answer: 55.9%

Question: What about the residual activity [23, 46] of the same compound?
Answer: 100%

Question: And the residual activity [24, 46]?
Answer: 76.7%

Question: And the residual activity [25, 46]?
Answer: 81.4%

Question: And the residual activity [26, 46]?
Answer: 82.7%

Question: What about the residual activity [27, 46] of the same compound?
Answer: 86.7%

Question: And the residual activity [28, 46]?
Answer: 85%

Question: And the residual activity [29, 46]?
Answer: 81.9%

Question: And the inhibition [30]?
Answer: 16.1%

Question: And the residual activity [31, 46]?
Answer: 100%

Question: And the residual activity [32, 46]?
Answer: 94.6%

Question: And the residual activity [33, 46]?
Answer: 64.5%

Question: And the residual activity [34, 46]?
Answer: 76.2%

Question: What about the residual activity [35, 46] of the same compound?
Answer: 73.5%

Question: And the residual activity [36, 46]?
Answer: 100%

Question: What about the residual activity [37, 46] of the same compound?
Answer: 100%

Question: And the residual activity [38, 46]?
Answer: 100%

Question: What about the inhibition [39] of the same compound?
Answer: 24.1%

Question: What about the residual activity [40, 46] of the same compound?
Answer: 81.4%

Question: And the residual activity [41, 46]?
Answer: 95%

Question: What about the residual activity [42, 46] of the same compound?
Answer: 45.7%

Question: And the residual activity [43, 46]?
Answer: 85.7%

Question: What about the residual activity [44, 46] of the same compound?
Answer: 79.4%
